Reference: patent US20260193244A1 (Protego Biopharma, Inc., priority 2022, published 2026)
Structures can show the parent of a compound that is named as a salt.

System: IRE1-XBP1s (HEK293 T-REx cells stably expressing the XBP1-RLuc splicing reporter)
Assay: IRE1-XBP1s activation Assay (XBP1-RLuc splicing reporter, luminescence relative to thapsigargin, with or without IRE1 inhibitor 4μ8C)
Assay type: cell-based
Conditions: 18 h, compound 10 μM, luminescence as percentage signal relative to thapsigargin (Tg) (500 nM, 18 h)
Procedure: IRE1-XBP1s activation Assay: HEK293 T-REx cells stably expressing the XBP1-RLuc splicing reporter were treated with an IRE1-XBP1s activator provided herein (10 μM) in the presence or absence of the IRE1 active site inhibitor 4μ8C (32 μM) for 18 h. Luminescence was shown as the percentage signal relative to thapsigargin (Tg) (500 nM, 18 h).

SMILES	activation at 10 µM [%]
Cc1ccc(OCCN(C)C(=O)Cn2cc(NC(=O)C3CC(Nc4ccncc4)C3)cn2)cc1 (centres unmarked) [Compound 135]	< 30
Cc1ccc(OC2CCCN(C(=O)Cn3cc(NC(=O)CCC4(c5ccccc5F)CC4)cn3)C2)cc1 (centres unmarked) [Compound 100, 3-(1-(2-fluorophenyl)cyclopropyl)-N-(1-(2-oxo-2-(3-(p-tolyloxy)piperidin-1-yl)ethyl)-1H-pyrazol-4-yl)propanamide]	< 30
Cc1ccc(OC2CC3(C2)CN(C(=O)Cn2cc(NC(=O)CCNc4ccnc(F)n4)cn2)C3)cc1 [Compound 181]	< 30
Cc1ccc(OC2CCC23CN(C(=O)Cn2cc(NC(=O)CCNc4nccc(F)n4)cn2)C3)cc1 (centres unmarked) [Compound 134]	< 30
Cc1ccc(OCCN(C)C(=O)Cn2cc(NC(=O)[C@@H]3CCC[C@@H](Oc4ccccc4)C3)cn2)cc1 [Compound 13]	< 30
Cc1ccc(O[C@H]2CCCN(C(=O)Cn3cc(NC(=O)CCNc4nccc(F)n4)cn3)C2)cc1 [Compound 136]	< 30
Cc1ccc(OCCN(C)C(=O)Cn2cc(NC(=O)[C@@H]3CCC[C@H](Oc4ccccc4)C3)cn2)cc1 [Compound 12]	< 30
COc1ccccc1OCCC(=O)Nc1cnn(CC(=O)N2CCCCC(Oc3ccccc3)C2)c1 (centres unmarked) [Compound 51]	< 30
CN(C(=O)Cn1cc(NC(=O)CCOc2ccccc2)cn1)c1ccc(OC2CCC(C)(C)CC2)c(F)c1 [Compound 119]	< 30
Cc1ccc(OCCN(C)C(=O)Cn2cc(NC(=O)[C@@H]3CC[C@@H](Oc4ccccc4)C3)cn2)cc1 [Compound 8, (1R,3R)—N-(1-(2-(methyl(2-(p-tolyloxy)ethyl)amino)-2-oxoethyl)-1H-pyrazol-4-yl)-3-phenoxycyclopentanecarboxamide hydrochloride]	< 30
Cc1ccc(Oc2c(F)cc(N(C)C(=O)Cn3cc(NC(=O)CCOc4ccccc4)cn3)cc2F)cc1 [Compound 55]	< 30
Cc1ccc(O[C@@H]2CCCN(C(=O)Cn3cc(NC(=O)CCOc4ccc(F)cc4C)cn3)C2)cc1 [Compound 93]	≥ 50
Cc1ccccc1OCCC(=O)Nc1cnn(CC(=O)N(C)c2ccc(Oc3ccccc3)cc2)c1 [Compound 34]	< 30
Cc1ccc(O[C@H]2CCCN(C(=O)Cn3cc(NC(=O)C4CC(Oc5cccnc5N)C4)cn3)C2)cc1 (some centres unmarked) [Compound 107]	30 to 50
Cc1ccc(OCCN(C)C(=O)Cn2cc(NC(=O)C3CC(Oc4ccncc4)CCO3)cn2)cc1 (centres unmarked) [Compound 141]	< 30
CN(CCOc1ccc(C(F)(F)F)cn1)C(=O)Cn1cc(NC(=O)[C@H]2COc3ccccc3O2)cn1 [Compound 192]	30 to 50
Cc1ccc(O[C@H]2CCCN(C(=O)Cn3cc(NC(=O)[C@H]4CNc5ccccc5O4)cn3)C2)cc1 [Compound 122]	< 30
Cc1ccc(O[C@H]2CCCN(C(=O)Cn3cc(NC(=O)[C@@H]4CNc5ccccc5O4)cn3)C2)cc1 [Compound 123]	< 30
Cc1ccc(OCCN(C)C(=O)Cn2cc(NC(=O)C3CN(C(=O)OC(C)(C)C)c4ccccc4O3)cn2)cc1 (centres unmarked) [Compound 73]	< 30
Cc1ccc(OCCN(C)C(=O)Cn2cc(NC(=O)C3CCCN(c4ccccc4)C3)cn2)cc1 (centres unmarked) [Compound 61]	< 30

SMILES	activation at 10 µM [%]
Cc1ccc(O[C@H]2CCCN(C(=O)Cn3cc(NC(=O)COc4ccccc4)cn3)C2)cc1 [Compound 146, N-[1-[2-[(3S)-3-(4-methylphenoxy)-1-piperidyl]-2-oxo-ethyl]pyrazol-4-yl]-2-phenoxy-acetamide]	< 30
Cc1ccc(OC2(C)CCCN(C(=O)Cn3cc(NC(=O)CCOc4ccccc4F)cn3)C2)cc1 (centres unmarked) [Compound 77]	30 to 50
Cc1ccc(C(F)(F)c2ccc(N(C)C(=O)Cn3cc(NC(=O)CCOc4ccccc4)cn3)cc2)cc1 [Compound 58]	< 30
Cc1ccc(OCCN(C)C(=O)Cn2cc(NC(=O)C3Oc4cccc(C(C)C)c4O3)cn2)cc1 (centres unmarked) [Compound 124]	< 30
O=C(Nc1cnn(CC(=O)N2CCC[C@H](Oc3ccc(C(F)(F)F)cn3)C2)c1)[C@@H]1COc2ccccc2O1 [Compound 189]	< 30
Cc1ccc(O[C@H]2CCCN(C(=O)Cn3cc(NC(=O)C4COc5ccccc5O4)cn3)C2)cc1 (some centres unmarked) [Compound 147]	< 30
COc1ccccc1OCCC(=O)Nc1cnn(CC(=O)N(C)c2ccc(Oc3ccc(C)cc3)cc2)c1 [Compound 25]	30 to 50
Cc1ccc(OCCN(C)C(=O)Cn2cc(NC(=O)C3CN(c4ccccc4)C3)cn2)cc1 [Compound 138]	< 30
COc1ccc(OCCC(=O)Nc2cnn(CC(=O)N3CCCC(Oc4ccc(C)cc4)C3)c2)cc1 (centres unmarked) [Compound 41, 3-(4-methoxyphenoxy)-N-(1-(2-oxo-2-(3-(p-tolyloxy)piperidin-1-yl)ethyl)-1H-pyrazol-4-yl)propanamide hydrochloride]	< 30
Cc1ccc(C2CCCN(C(=O)Cn3cc(NC(=O)CCOc4ccccc4)cn3)C2)cc1 (centres unmarked) [Compound 28]	< 30
Cc1cccc(OCCC(=O)Nc2cnn(CC(=O)N(C)c3ccc(Oc4ccccc4)cc3)c2)c1 [Compound 35]	< 30
CN(C(=O)Cn1cc(NC(=O)CCOc2ccccc2)cn1)C12CCC(Oc3ccc(C(F)(F)F)cc3)(CC1)CC2 [Compound 70]	≥ 50
Cc1ccc(OCCN(C)C(=O)Cn2cc(NC(=O)CC3CN(C(=O)OC(C)(C)C)c4cc(F)ccc4O3)cn2)cc1 (centres unmarked) [Compound 97]	≥ 50
Cc1ccc(O[C@H]2CCCN(C(=O)Cn3cc(NC(=O)CCOc4c(Br)cncc4[N+](=O)[O-])cn3)C2)cc1 [Compound 165]	≥ 50
Cc1ccc(OC2CCCN(C(=O)Cn3cc(NC(=O)CCOc4cc(Cl)ccc4F)cn3)C2)cc1 (centres unmarked) [Compound 80]	≥ 50
O=C(Nc1cnn(CC(=O)N2CCC[C@H](Oc3ccc(C(F)(F)F)cn3)C2)c1)[C@H]1COc2ccccc2O1 [Compound 188, (R)—N-(1-(2-oxo-2-((S)-3-((5-(trifluoromethyl)pyridin-2-yl)oxy)piperidin-1-yl)ethyl)-1H-pyrazol-4-yl)-2,3-dihydrobenzo[b][1, 4]dioxine-2-carboxamide]	< 30
Cc1ccc(OCCN(C)C(=O)Cn2cc(NC(=O)C3CNCC3Nc3ccnc(F)n3)cn2)cc1 (centres unmarked) [Compound 203]	< 30
Cc1ccc(OCCN(C)C(=O)Cn2cc(NC(=O)C3COc4cccc(C(C)C)c4O3)cn2)cc1 (centres unmarked) [Compound 126]	< 30
O=C(CCOc1ccc(Cl)cc1)Nc1cnn(CC(=O)N2CCCCC(Oc3ccccc3)C2)c1 (centres unmarked) [Compound 50]	< 30
Cc1ccc(OCCN(C)C(=O)Cn2cc(NC(=O)C3CNCC3Nc3ccnc(O)n3)cn2)cc1 (centres unmarked) [Compound 133]	< 30

SMILES	activation at 10 µM [%]
Cc1ccc(OCCN(C)C(=O)Cn2cc(NC(=O)c3cnccc3NC(=O)OC(C)(C)C)cn2)cc1 [Compound 111]	≥ 50
[2H]C([2H])([2H])c1ccc(OCCN(C)C(=O)Cn2cc(NC(=O)C3CNc4ccccc4O3)cn2)cc1 (centres unmarked) [Compound 201]	≥ 50
Cc1ccc(OC2CCCN(C(=O)Cn3cc(NC(=O)CCOc4ccccc4Cl)cn3)C2)cc1 (centres unmarked) [Compound 39]	≥ 50
Cc1ccc(OC2CCCN(C(=O)Cn3cc(NC(=O)CCOc4cccnc4C(F)(F)F)cn3)C2)cc1 (centres unmarked) [Compound 91]	< 30
O=C(Nc1cnn(CC(=O)N2CCC[C@H](Oc3ccc(C(F)(F)F)cn3)C2)c1)C1CC(Oc2ccncc2)C1 (some centres unmarked) [Compound 108]	< 30
Cc1ccc(OCCN(C)C(=O)Cn2cc(NC(=O)COC3CCCN(c4ccnc(F)n4)C3)cn2)cc1 (centres unmarked) [Compound 137]	< 30
Cc1ccc(OC2(C)CCCN(C(=O)Cn3cc(NC(=O)CCOc4ccccc4F)cn3)C2)c(N)c1 (centres unmarked) [Compound 69, N-(1-(2-(3-(2-amino-4-methylphenoxy)-3-methylpiperidin-1-yl)-2-oxoethyl)-1H-pyrazol-4-yl)-3-(2-fluorophenoxy)propanamide]	< 30
Cc1ccc(OC2CCCN(C(=O)Cn3cc(NC(=O)CCOc4c(F)cccc4F)cn3)C2)cc1 (centres unmarked) [Compound 86]	30 to 50
O=C(CCOc1ccccc1)Nc1cnn(CC(=O)N2CCCN(c3ccc(F)cn3)CC2)c1 [Compound 33]	< 30
Cc1ccc(O[C@H]2CCCN(C(=O)Cn3cc(NC(=O)[C@@H]4COc5ccccc5O4)cn3)C2)cc1 [Compound 185]	< 30
Cc1ccc(O[C@H]2CCCN(C(=O)Cn3cc(NC(=O)[C@H]4C[C@H](Oc5ccccn5)C4)cn3)C2)cc1 [Compound 106]	≥ 50
Cc1ccc(OCCN(C)C(=O)Cn2cc(NC(=O)OC3CCCN(c4ccnc(F)n4)C3)cn2)cc1 (centres unmarked) [Compound 130, 1-(2-fluoropyrimidin-4-yl)piperidin-3-yl (1-(2-(methyl (2-(p-tolyl-oxy)ethyl)amino)-2-oxoethyl)-1H-pyrazol-4-yl)carbamate]	< 30
Cc1ccc(OCCN(C)C(=O)Cn2cc(NC(=O)C3CCCC(Oc4ccncc4)C3)cn2)cc1 (centres unmarked) [Compound 101]	< 30
Cc1ccc(OCCN(C)C(=O)Cn2cc(NC(=O)C3CCC(Oc4ccncc4)C3)cn2)cc1 (centres unmarked) [Compound 104]	≥ 50
COc1ccc2c(c1)CC(C(=O)Nc1cnn(CC(=O)N(C)CCOc3ccc(C)cc3)c1)CO2 (centres unmarked) [Compound 63]	< 30
Cc1ccc(OCCN(C)C(=O)Cn2cc(NC(=O)C3COc4ccccc4C3)cn2)cc1 (centres unmarked) [Compound 60]	< 30
Cc1ccc(OC2CCCN(C(=O)Cn3cc(NC(=O)CCOc4cncc(F)c4)cn3)C2)cc1 (centres unmarked) [Compound 75]	< 30
[2H]C([2H])([2H])c1ccc(OCCN(C)C(=O)Cn2cc(NC(=O)C3COc4ccccc4O3)cn2)cc1 (centres unmarked) [Compound 200]	≥ 50
Cc1ccc(OCCN(C)C(=O)Cn2cc(N(C)C(=O)C3CCC(Oc4ccccc4)CC3)cn2)cc1 (centres unmarked) [Compound 17]	< 30
